pIC50: −log10 of the molar value. Entries after “also recorded” stand apart in the source; their conditions may differ. Like-named read-outs stand apart in the source and are kept apart here. Square brackets hold non-standard residues; d marks the D form. Peptide text beside a SMILES is read from it. Nle = CCCC[C@H](N)C(=O)O
Columns and labels:
papain = biological target: T1, papain (Carica papaya, UniProt P00784); test: Selectivity: papain protease assay (casein substrate); format: biochemical; settings: Table II; read-out: Inhibitory Activity of Thiol-Acrylates, Papain (IC50)
T1 construct: purchased Sigma P3125; host or cells: papaya latex
T1 sequence (P00784 134-345): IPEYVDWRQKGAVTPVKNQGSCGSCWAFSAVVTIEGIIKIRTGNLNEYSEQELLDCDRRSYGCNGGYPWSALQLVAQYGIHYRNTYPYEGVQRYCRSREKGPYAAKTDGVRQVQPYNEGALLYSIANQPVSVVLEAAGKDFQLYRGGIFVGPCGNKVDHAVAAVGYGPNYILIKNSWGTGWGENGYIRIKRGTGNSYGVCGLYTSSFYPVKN
Description: (§1) Calpain I was assayed as described (α-mercaptoacrylic acid). Ten to 20 ng papain (papaya latex, Sigma, P3125), 1.25 μg trypsin (bovine pancreas, Sigma, T8003), and 5 μg thermolysin (Bacillus thermoproteolyticus, Sigma, P1512) were assayed using 0.5 mg/mL casein as substrate in the microplate format (250 μL reaction volume), essentially as described by Buroker-Kilgore M., Wang K. K. W., Anal Biochem 1993;208:387-392. Inhibition of these proteases are presented as IC50.

trypsin = biological target: T2, trypsin (Bos taurus, UniProt P00760); test: Selectivity: trypsin protease assay (casein substrate); format: biochemical, bovine; settings: Table II; read-out: Inhibitory Activity of Thiol-Acrylates, Trypsin (IC50)
T2 construct: purchased Sigma T8003; host or cells: bovine pancreas
T2 sequence (P00760 24-246): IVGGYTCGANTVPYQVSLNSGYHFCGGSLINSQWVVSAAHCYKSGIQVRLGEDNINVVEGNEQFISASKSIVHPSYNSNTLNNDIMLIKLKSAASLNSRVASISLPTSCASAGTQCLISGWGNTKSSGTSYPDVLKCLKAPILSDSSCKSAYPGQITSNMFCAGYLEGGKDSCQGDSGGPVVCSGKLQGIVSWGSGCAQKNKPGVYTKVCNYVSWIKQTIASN
Description: as §1

thermolysin = biological target: T3, thermolysin (Bacillus thermoproteolyticus, UniProt P00800); test: Selectivity: thermolysin protease assay (casein substrate); format: biochemical
T3 construct: purchased Sigma P1512; host or cells: Bacillus thermoproteolyticus
Description: as §1

[1] = tested on: Fetal rat cortical cell cultures; test: Assay of Lactate Dehydrogenase (LDH): NMDA-induced LDH release; format: cell-based; settings: 500 μM NMDA; 200 μM calpain inhibiting compound; FIG. II
Description: Seventeen-day-old cultures were pretreated with 200 μM calpain inhibiting compound (when added) for 1 hour before treatment of 500 μM N-methyl-D-aspartate (NMDA) for 30 minutes (in the absence or the presence of the compound).

[2] = tested on: spectrin breakdown in rat cortical cell cultures; test: Spectrin Breakdown Measurement (immunoblot); format: cell-based; settings: NMDA-treated cortical cells, 4-hour post-NMDA
Description: Rat cortical cell cultures were treated with NMDA in the absence or presence of calpain inhibiting compounds as described in "Assay of LDH" above. At the end of the 4-hour post-NMDA incubation, cells were lysed with 300 μL buffer containing 20 mM Tris-HCL (pH 7.4 at 4° C.), 1% SDS, 5 mM EGTA, 5 mM EDTA, 1 mM DTT, and various protease inhibitors. Total cellular protein was precipitated by 100 μL of 100% trichloroacetic acid. The samples were centrifuged and the pelleted protein solubilized with 50 μl of 3M Tris base. […] The blots were then probed with rabbit antibrain spectrin antibody (primary antibody) followed by alkaline phosphatase-conjugated goat antirabbit immunoglobulin G antibody (secondary antibody). […] The SBP were quantified by densitometry (BioRad Model 620).

calpain I [3] = biological target: T4, calpain I (Homo sapiens, UniProt P07384); test: Casein Breakdown by calpain I (SDS-PAGE); format: biochemical; set-up: casein substrate; settings: 30 μM compound, 0.8 nM calpain I, all time points up to 120 minutes
T4 sequence (P07384 1-714): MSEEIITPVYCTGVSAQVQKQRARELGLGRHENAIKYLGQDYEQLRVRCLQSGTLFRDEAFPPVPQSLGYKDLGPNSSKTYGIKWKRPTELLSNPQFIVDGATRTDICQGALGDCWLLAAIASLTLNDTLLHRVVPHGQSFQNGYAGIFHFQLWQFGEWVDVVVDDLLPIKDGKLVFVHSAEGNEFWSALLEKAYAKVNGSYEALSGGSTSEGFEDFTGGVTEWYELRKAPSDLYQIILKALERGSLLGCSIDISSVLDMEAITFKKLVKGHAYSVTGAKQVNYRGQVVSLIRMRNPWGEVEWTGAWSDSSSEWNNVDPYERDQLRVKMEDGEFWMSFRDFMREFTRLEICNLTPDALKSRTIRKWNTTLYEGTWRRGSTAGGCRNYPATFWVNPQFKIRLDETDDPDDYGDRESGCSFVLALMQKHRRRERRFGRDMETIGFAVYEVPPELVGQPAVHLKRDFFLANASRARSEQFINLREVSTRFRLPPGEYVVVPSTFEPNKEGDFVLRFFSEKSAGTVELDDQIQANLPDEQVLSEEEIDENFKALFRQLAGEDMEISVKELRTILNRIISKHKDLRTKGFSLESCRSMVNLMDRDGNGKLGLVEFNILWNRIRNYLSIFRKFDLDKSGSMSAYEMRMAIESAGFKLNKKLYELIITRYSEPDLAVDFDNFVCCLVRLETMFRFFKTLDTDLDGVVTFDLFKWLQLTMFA
T4 sequence (P04632 1-268 partner): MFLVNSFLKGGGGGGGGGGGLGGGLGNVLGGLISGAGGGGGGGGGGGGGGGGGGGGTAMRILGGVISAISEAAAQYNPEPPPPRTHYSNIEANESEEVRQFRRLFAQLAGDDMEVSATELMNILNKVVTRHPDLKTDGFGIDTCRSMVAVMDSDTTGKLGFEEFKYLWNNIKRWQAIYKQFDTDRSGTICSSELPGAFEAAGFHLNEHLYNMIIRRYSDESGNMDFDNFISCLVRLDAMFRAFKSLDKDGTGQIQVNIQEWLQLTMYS
Description: Casein (15 μM) was incubated with 0.8 nM calpain I, 15 mM DTT, 45 mM Tris-HCl (pH 7.4 at 25° C.) and in the presence or the absence of compound Example 3 (30 μM) for up to 120 minutes. Aliquots of the samples were taken at several time points and subjected to SDS-polyacrylamide gel electrophoresis (SDS-PAGE) as described by Laemmli U. K., Nature 1970;[…]. Casein and its fragments were visualized by Coomassie G250 staining of the gel.

calpain I [4] = biological target: T4, calpain I; test: Assay of Calpain Activity (casein substrate, microplate, Coomassie blue); format: biochemical; set-up: Calpain I was purified from human erythrocytes; from tissue; host or cells: human erythrocytes
Description: (§2) In 250 μL of reaction mixture, substrate casein (0.5 mg/mL) was incubated with 0.01 unit (80-120 ng) calpain I, 20 mM dithiothreitol (DTT), 50 mM Tris-HCl (pH 7.4 at 25° C.), and 4 mM CaCl2 at 25° C. for 60 minutes. Two 100-μL aliquots were taken for Coomassie blue binding analysis to quantify the remaining casein.
Calpain I was assayed as described (α-mercaptoacrylic acid). […] Inhibition of these proteases are presented as IC50.

calpain I [5] = biological target: T4, calpain I; test: Calpain inhibition after treatment with rabbit liver esterase; format: biochemical; set-up: casein substrate; settings: FIG. I
Description: as §2, with “Calpain I was purified from human erythrocytes as described by Wang K. K. W., Roufogalis B. D., Villalobo A., Arch Biochem Biophys 1988;267:317-327.Calpain activity was assayed in a 96-well microplate format (Buroker-Kilgore M., Wang K. K. W., Anal Biochem 1993;208:387-392). In” for “In”
Various concentrations of the compound of Example 6 (250 nM to 2.5 mM) were pretreated with 0.2 unit rabbit liver esterase (Sigma E9636) in 50 μL containing 50 mM Tris-HCl (pH 7.4 at 25° C.), 5 mM DTT at 25° C. for 60 minutes. The mixture was then tested for calpain inhibition with the calpain assay described above.
The esterase presumably hydrolyzed the only ester bond in the molecule, producing the free acid compound which is identical to the compound of Example 3.

myocardiac infraction = settings: dogs, coronary reperfusion after acute myocardiac infraction; cited from earlier work
smooth muscle cells = settings: cited from earlier work
restenosis = settings: in vivo; cited from earlier work
[6] = Table I, 4 mM CaCl2, pH 7.4, 25° C., 60 minutes, read-out: Inhibitory Activity Against Human Calpain I IC50

T3 sequence (P00800 233-548): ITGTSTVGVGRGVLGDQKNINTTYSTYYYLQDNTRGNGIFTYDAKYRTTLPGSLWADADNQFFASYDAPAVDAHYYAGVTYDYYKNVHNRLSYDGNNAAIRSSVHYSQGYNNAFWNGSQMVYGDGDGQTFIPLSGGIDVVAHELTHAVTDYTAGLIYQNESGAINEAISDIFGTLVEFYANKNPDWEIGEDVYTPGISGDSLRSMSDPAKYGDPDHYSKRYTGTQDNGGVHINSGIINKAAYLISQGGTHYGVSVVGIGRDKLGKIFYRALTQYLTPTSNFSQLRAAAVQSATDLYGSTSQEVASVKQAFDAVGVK

With `O=C(O)/C(S)=C/c1ccc2ccccc2c1` [Example 3, (Z)-2-Propenoic Acid, 2-mercapto-3-(7-naphthalenyl)] the pIC50 (papain) was less than 3.70, the pIC50 (trypsin) was less than 3.70 and the pIC50 (thermolysin) was 3.40. For the same compound, the “block of NMDA-induced LDH release (in words)” value [1] was “partially blocked”, the “spectrin breakdown product (SBP) formation, 150 kDa and 145 kDa (in words)” value [2] was “partially blocked SBP formation” and the “degradation of casein by calpain I (in words)” value (calpain I [3]) was “almost completely blocked the degradation of casein at all time points”. For the same compound, the pIC50 (calpain I [4]; [6]) was 5.59 and the pIC50 (calpain I [4]; Table II (selectivity), read-out: Inhibitory Activity of Thiol-Acrylates, Calpain (IC50)) was 5.62.
For `CCOC(=O)/C(S)=C/c1ccc2ccccc2c1` [Example 6, Ethyl 2-Propenoic Acid, (Z)-2-mercapto-3-(2-naphthalenyl)-, Ethyl Ester], the “inhibition of calpain upon preincubation with esterase (in words)” value (calpain I [5]; 0.2 unit rabbit liver esterase, 60 minutes) was “shows activity only after it is hydrolyzed by cellular esterase; also recorded: strong inhibition on calpain”, the “inhibition of calpain I without esterase (in words)” value (calpain I [5]; as high as 500 μM, no esterase) was “did not inhibit calpain I” and the pIC50 (calpain I [4]; [6]) was less than 3.30.
For `CC(C)CCNC(=O)[C@H](CC(C)C)NC(=O)[C@H]1O[C@@H]1C(=O)O` [Example E64c], the size of infract (myocardiac infraction) is given as “significantly reduce the size of infract”.
In the case of `CCCC[C@@H](C=O)NC(=O)[C@H](CC(C)C)NC(=O)[C@H](CC(C)C)NC(C)=O` [calpain inhibitor I] (Ac-Leu-Leu-[Nle]-aldehyde), the “proliferation and migration of smooth muscle cells to the neoinitimal layer” value (smooth muscle cells) is given as “controlling proliferation and migration of smooth muscle cells” and the inhibition of restenosis (restenosis) is given as “inhibit restenosis”.

— patent US5760048A, “Alpha-mercaptoacrylic acid derivatives having calpain inhibitory activity” (Warner-Lambert Company, priority 1996, dated 1998)
